Test results as given in EP0412760A2, “Benzopyran derivatives” (Beecham Group p.l.c., priority 1989, dated 1991).

Tests used:
[1] = test system: Spontaneously hypertensive rats; experiment: Antihypertensive activity: systolic blood pressure by tail cuff method; format: in vivo; conditions: dose of 0.05 mg/kg p.o.
Method: Systolic blood pressures were recorded by a modification of the tail cuff method described by I.M. Claxton, M.G. Palfreyman, R.H. Poyser, R.L. Whiting, European Journal of Pharmacology, 37, 179 (1976). A W+W BP recorder, model 8005 was used to display pulses. Prior to all measurements rats were placed in a heated environment (33.5 ± 0.5°C) before transfer to a restraining cage. The determination of blood pressure was the mean of 5 readings. Spontaneously hypertensive rats (ages 12-18 weeks) with systolic blood pressures >180 mmHg were considered hypertensive.

[2] = test system: trachea; experiment: Bronchodilator activity: relaxation of isolated trachea spirals; format: cell-based, guinea pigs; conditions: Cavia porcellus; fall in resting tension as percentage of total relaxation evoked by 10⁻³M isoprenaline; guinea pig trachea spirals, Krebs solution at 37°C; read-out: IC₅₀
Method: Male guinea pigs (300-600g) were stunned by a blow to the head and bled from the carotid artery. The trachea was exposed, dissected free of connective tissue, and transferred to oxygenated Krebs solution at 37 °C. Next, spirals (2 per trachea) were prepared by cutting the whole trachea spirally along its longitudinal axis and then dividing this spiral lengthwise. Each preparation was mounted, using silk thread, in a 10ml organ bath filled with Krebs solution at 37 °C and bubbled with 5% CO₂ with O₂. The resting tension of the preparations was set at 2g and changes in muscle tension were monitored isometrically by means of a UFI (2oz) force and displacement transducer (Ormed Ltd) connected to a Linseis pen recorder. All preparations were allowed to equilibrate for 60 minutes. During this equilibration period the preparations were washed by upward displacement at 15 minute intervals and, if necessary, the resting tension was readjusted to 2g using a mechanical micromanipulator system.
Once a steady resting tension had been obtained, the preparations were dosed simultaneously with the test compound (10⁻⁸-2x10⁻⁵M), and finally a maximum relaxation achieved by addition of 10⁻³M isoprenaline. The fall in tension evoked by the test compound was expressed as a percentage of the total relaxation evoked in the presence of 10⁻³ isoprenaline. […]

Structure (SMILES): CCc1ccc2c(c1)[C@@H](N1CCCCC1=O)[C@H](O)C(C)(C)O2 [compound of formula (I), 3,4-Dihydro-2,2-dimethyl-6-ethyl-4R-(2-oxopiperidin-1-yl)-2H-1-benzopyran-3S-ol]
- maximum fall in blood pressure [1]: 19%
- IC50 [2]: 230 nM
